Results: patent publication US11959083B2, “Immunosuppression-reverting oligonucleotides inhibiting the expression of CD39” (Secarna Pharmaceuticals GmbH & Co. KG, priority 2016, dated 2024)
l = locked nucleic acid (LNA); d = 2'-deoxy (DNA)

How the values were obtained:
[1] = tested on: hCD39 mRNA; experiment: hCD39 mRNA knockdown efficacy screen in HDLM-2 cells (single dose, gymnotic delivery, QuantiGene Singleplex); assay type: cell-based, human; parameters: key to Relative hCD39 mRNA expression (compared to non-treated cells): *: values are below detection limit; conditions: 10 μM, 3 days; for Mean hCD39 mRNA expression normalized to HPRT1 relative to untreated control = 1: first screening round; for Relative hCD39 mRNA expression (compared to non-treated cells): second screening round, normalized to HPRT1
Experimental: (§1) FIGS. 2A to 2D depict hCD39 mRNA knockdown efficacy of hCD39 antisense oligonucleotides in human cancer cell lines HDLM-2 (human Hodgkin Lymphoma) in a first and second screening round (FIGS. 2A-1 and 2A-2) and 2B-1 and 2B-2 and A-172 (human glioblastoma) in a first and second screening round (FIGS. 2C-1 and 2C-2) and 2D-1 and 2D-2. HDLM-2 and A-172 cells were treated for 3 days with 10 μM of the respective antisense oligonucleotide. As negative control, cells were treated with neg1, an antisense oligonucleotide having the sequence CGTTTAGGCTATGTACTT (SEQ ID NO:99) (described in WO2014154843 A1). Residual hCD39 mRNA expression relative to untreated cells is depicted. Expression values were normalized to expression of the housekeeping gene HPRT1. Depicted is the mean of triplicate wells+/−SD.
(§2) FIGS. 6A-6B depicts a third screening round where further antisense oligonucleotides were designed. These antisense oligonucleotides were based on efficient antisense oligonucleotides from the first and second screening round. Therefore, hCD39 antisense oligonucleotides were tested in human cancer cell lines HDLM-2 (human Hodgkin's lymphoma) (FIG. 6A) and A-172 (human glioblastoma) (FIG. 6B). HDLM-2 and A-172 cells were treated for 3 days with 10 μM of the respective antisense oligonucleotide. […] Residual hCD39 mRNA expression relative to untreated cells (set as 1) is depicted.
(§3) In order to analyze the efficacy of hCD39 antisense oligonucleotides of the present invention with regard to the knockdown of hCD39 mRNA expression in cancer cell lines, HDLM-2 (human Hodgkin Lymphoma, DSMZ) and A-172 (human glioblastoma, ATCC) cells were treated with a single dose (concentration: 10 μM without addition of any transfection reagent; this process is called gymnotic delivery) of the respective antisense oligonucleotide as shown in FIG. 2A to 2D. hCD39 and HPRT1 mRNA expression was analyzed three days later using the QuantiGene Singleplex assay (Affymetrix) and hCD39 expression values were normalized to HPRT1 values. […] Values of the mean normalized mRNA expression of hCD39 compared to non-treated cells are listed for A-172 (Table 4 for first screening round and Table 5 for second screening round) and HDLM-2 cells (Table 6 for first screening round and Table 7 for second screening round) in the following:
(§4) For a third screening round, new antisense oligonucleotides were designed. These antisense oligonucleotides were based on efficient antisense oligonucleotides from the first screening round with modifications in length, exact position on mRNA and chemical modification pattern. Therefore, hCD39 antisense oligonucleotides were tested in human cancer cell lines (FIG. 6A, Table 10) HDLM-2 (human Hodgkin's lymphoma) and (FIG. 6B, Table 11) A-172 (human glioblastoma). HDLM-2 and A-172 cells were treated for 3 days with 10 μM of the respective antisense oligonucleotide. […] Residual hCD39 mRNA expression relative to untreated cells (set as 1) is depicted.

[2] = tested on: hCD39 mRNA; experiment: hCD39 mRNA knockdown efficacy screen in A-172 cells (single dose, gymnotic delivery, QuantiGene Singleplex); assay type: cell-based, human; conditions: 10 μM, 3 days; for Mean hCD39 mRNA expression (relative to untreated cells set as 1): first screening round; for Mean hCD39 mRNA expression (relative to untreated cells set as 1) / Relative hCD39 mRNA expression (compared to non-treated cells): normalized to HPRT1; for Relative hCD39 mRNA expression (compared to non-treated cells): second screening round
Experimental: as §1, §2, §3, §4

Row | Substance | Mean hCD39 mRNA expression normalized to HPRT1 relative to untreated control = 1 [1] | Relative hCD39 mRNA expression (compared to non-treated cells) [1] | Mean hCD39 mRNA expression (relative to untreated cells set as 1) [2] | Relative hCD39 mRNA expression (compared to non-treated cells) [2] | Residual hCD39 mRNA expression relative to untreated cells (set as 1) ([1]; third screening round) | Residual hCD39 mRNA expression relative to untreated cells (set as 1) ([2]; third screening round)
1 | +G*+C*+C*T*T*G*A*A*C*A*C*T*G*C*+G*+A (antisense GCCTTGAACACTGCGA; sugars from the 5' end l3 d11 l2, all phosphorothioate, methylation of C not given here) [A04032H] | 0.06 | 0.01 | 0.19 | 0.10 |  | 
2 | +T*+A*+C*T*C*C*A*G*C*G*T*A*A*+G*+A*+T (antisense TACTCCAGCGTAAGAT; sugars from the 5' end l3 d10 l3, all phosphorothioate, methylation of C not given here) [A04027H] | 0.24 | 0.24 | 0.58 | 0.58 |  | 
3 | +G*+A*C*T*A*T*G*C*T*G*A*A*C*+C*+A*+C (antisense GACTATGCTGAACCAC; sugars from the 5' end l2 d11 l3, all phosphorothioate, methylation of C not given here) [A04023H] | 0.06 | 0.06 | 0.09 | 0.10 |  | 
4 | +G*+C*+C*C*C*A*A*A*A*T*C*C*C*C*+C*+T*+G (antisense GCCCCAAAATCCCCCTG; sugars from the 5' end l3 d11 l3, all phosphorothioate, methylation of C not given here) [A04047H] |  | * |  | 0.43 |  | 
5 | +C*C*T*A*C*C*C*A*G*G*A*T*A*G*+T*+C (antisense CCTACCCAGGATAGTC; sugars from the 5' end l1 d13 l2, all phosphorothioate, methylation of C not given here) [A04035H] | 0.17 | 0.18 |  | 0.37 |  | 
6 | +T*+T*+G*A*A*C*A*C*T*G*C*+G*+A*+T (antisense TTGAACACTGCGAT; sugars from the 5' end l3 d8 l3, all phosphorothioate, methylation of C not given here) [A04003H] | 0.20 | 0.20 | 0.18 | 0.18 |  | 
7 | +G*+G*+C*G*A*A*A*T*T*G*C*+A*+G*+A (antisense GGCGAAATTGCAGA; sugars from the 5' end l3 d8 l3, all phosphorothioate, methylation of C not given here) [A04001H] | 0.25 | 0.25 | 0.58 | 0.58 |  | 
8 | +G*G*+T*T*T*G*T*G*T*G*A*G*+A*G*+C (antisense GGTTTGTGTGAGAGC; sugars from the 5' end ldldddddddddldl, all phosphorothioate, methylation of C not given here) [A04062H] |  |  |  |  | 0.01 | 0.17
9 | +A*+C*+T*C*C*A*G*C*G*T*A*A*+G*+A*+T (antisense ACTCCAGCGTAAGAT; sugars from the 5' end l3 d9 l3, all phosphorothioate, methylation of C not given here) [A04013H] | 0.22 | 0.22 |  | 0.75 |  | 
10 | +A*+T*+G*T*A*G*C*C*C*A*A*A*G*T*+C*+C (antisense ATGTAGCCCAAAGTCC; sugars from the 5' end l3 d11 l2, all phosphorothioate, methylation of C not given here) [A04028H] | 0.07 | 0.07 | 0.29 | 0.29 |  | 
11 | +C*T*+T*G*C*C*A*T*A*G*A*G*G*C*+G*A*+A (antisense CTTGCCATAGAGGCGAA; sugars from the 5' end ldldddddddddddldl, all phosphorothioate, methylation of C not given here) [A04041H] | 0.18 | * | 0.46 | 0.24 |  | 
12 | +G*+G*+A*C*A*A*T*G*G*T*T*G*C*+T*C*+A (antisense GGACAATGGTTGCTCA; sugars from the 5' end l3 d10 l1 d1 l1, all phosphorothioate, methylation of C not given here) [A04030H] | 0.07 | 0.38 | 0.19 | 0.10 |  | 
13 | +A*+A*+T*C*C*C*C*C*T*G*G*A*+G*+T*+G (antisense AATCCCCCTGGAGTG; sugars from the 5' end l3 d9 l3, all phosphorothioate, methylation of C not given here) [A04011H] | 0.29 | 0.30 |  | 0.69 |  | 
14 | +C*+C*+C*T*C*T*C*A*C*T*A*A*A*+T*+T*+A (antisense CCCTCTCACTAAATTA; sugars from the 5' end l3 d10 l3, all phosphorothioate, methylation of C not given here) [A04036H] | 0.26 | 0.01 | 0.55 | 0.28 |  | 
15 | +A*+G*+C*C*T*A*T*G*A*T*G*G*C*C*+A*+C (antisense AGCCTATGATGGCCAC; sugars from the 5' end l3 d11 l2, all phosphorothioate, methylation of C not given here) [A04031H] |  | * |  | 0.55 |  | 
16 | +C*+C*C*T*G*G*A*T*C*T*T*G*C*C*+A*+A*+T (antisense CCCTGGATCTTGCCAAT; sugars from the 5' end l2 d12 l3, all phosphorothioate, methylation of C not given here) [A04049H] |  | * |  | 0.45 |  | 
17 | +A*+C*+T*A*T*G*C*T*G*A*A*C*C*A*+C*+C (antisense ACTATGCTGAACCACC; sugars from the 5' end l3 d11 l2, all phosphorothioate, methylation of C not given here) [A04022H] | 0.09 | 0.09 | 0.14 | 0.15 |  | 
18 | +T*+A*G*A*C*A*T*T*G*T*A*G*+T*+C*+C (antisense TAGACATTGTAGTCC; sugars from the 5' end l2 d10 l3, all phosphorothioate, methylation of C not given here) [A04009H] | 0.15 | 0.15 | 0.28 | 0.29 |  | 
